In one experiment the target is MELK (Homo sapiens, UniProt Q14680). Kind of experiment: Kinase assay: MELK activity, phosphorylation of FITC-labeled histone H3 peptide measured by IMAP fluorescence polarization. Format: biochemical. To be noted: read-out: IC50 (μM) (kinase assay). In outline:
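Polarization of fluorescence served as the signal for MELK turnover of FITC-conjugated histone H3 peptide. Binding solution quenched each reaction, and plates stood 0.5 hour at room temperature before reading.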
(Polarisation of emitted light reports the rotation of a fluorescent probe.)

Another experiment relates to T47D cells. Kind of experiment: Cell-based assay: anti-proliferative activity, Cell Counting Kit-8, 72 hours (T47D). In outline:
(§1)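 Target-specific cytotoxicity: seeded cells treated with MELK inhibitor candidates for 72 h, proliferation quantified via CCK-8, IC50 fitted.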

Another experiment relates to A549 cells. Kind of experiment: Cell-based assay: anti-proliferative activity, Cell Counting Kit-8, 72 hours (A549). To be noted: 72 hours. In outline: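 A549 cells seeded in 96-well plates and exposed to candidate inhibitors for 72 hours. Growth measured with Cell Counting Kit-8; IC50 values calculated from the dose response.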
For orientation: Tetrazolium dyes change colour on reduction, which living cells bring about.

The test system of the next experiment is HT-1197 cells. The experiment is described as follows: Cell-based assay: anti-proliferative activity, Cell Counting Kit-8, 72 hours (HT-1197, negative control without MELK expression). The settings on record: HT1197 cells (negative control), 72 hours. In outline:
as §1

In another experiment the test system is DU4475 cells. Kind of experiment: Cell-based assay: anti-proliferative activity, Cell Counting Kit-8, 72 hours (DU4475).

Results on 19 compounds are retold here after patent publication US9120749B2, “Quinoline derivatives and MELK inhibitors containing the same” (ONCOTHERAPY SCIENCE, INC., priority 2010, dated 2015).

Counter-ions that a name gives are not always drawn. Like-named read-outs stand apart in the source and are kept apart here.

MELK, sequence (Q14680 whole entry, looked up): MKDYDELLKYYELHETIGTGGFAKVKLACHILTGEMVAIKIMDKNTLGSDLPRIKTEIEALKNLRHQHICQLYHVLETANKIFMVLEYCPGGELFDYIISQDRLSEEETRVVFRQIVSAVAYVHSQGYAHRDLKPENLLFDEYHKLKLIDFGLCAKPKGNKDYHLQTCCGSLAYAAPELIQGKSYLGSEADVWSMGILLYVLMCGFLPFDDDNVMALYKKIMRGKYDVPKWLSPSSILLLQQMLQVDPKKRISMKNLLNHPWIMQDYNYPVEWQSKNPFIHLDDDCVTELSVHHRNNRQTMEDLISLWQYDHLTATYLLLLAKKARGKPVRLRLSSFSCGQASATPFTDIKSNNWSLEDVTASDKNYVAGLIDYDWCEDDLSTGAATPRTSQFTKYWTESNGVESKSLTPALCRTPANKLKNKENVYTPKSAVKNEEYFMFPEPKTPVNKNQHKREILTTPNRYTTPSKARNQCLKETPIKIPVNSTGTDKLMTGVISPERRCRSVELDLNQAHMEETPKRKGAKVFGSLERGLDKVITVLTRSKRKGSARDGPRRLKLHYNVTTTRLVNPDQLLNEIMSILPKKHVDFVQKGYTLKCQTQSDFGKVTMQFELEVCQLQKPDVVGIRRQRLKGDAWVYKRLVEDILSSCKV

Broadly, the IC50 is the concentration that gives 50% inhibition. As to `NC1CCN(c2ncc(Nc3c(C(=O)C4CC4)cnc4ccc(-c5cc(F)c(O)c(Cl)c5)cc34)cn2)CC1` [Example 567, (4-(2-(4-aminopiperidin-1-yl)pyrimidin-5-ylamino)-6-(3-chloro-5-fluoro-4-hydroxyphenyl)quinolin-3-yl)(cyclopropyl)methanone], the IC50 is 0.0083 µM on MELK; 0.076 µM with T47D cells (Homo sapiens, T47D, 72 h); 0.34 µM in the experiment on A549 cells (Homo sapiens, A549, 72 h); 1.9 µM with HT-1197 cells (Homo sapiens, HT1197, 72 h); 0.18 µM in the experiment on DU4475 cells (Homo sapiens, DU-4475, 72 h).
For the compound `COc1cc(-c2ccc3ncc(C(=O)C4CC4)c(Nc4ccc(N5CCC(N)C5)nc4)c3c2)cc(Cl)c1O` (centres unmarked) [Example 568, (4-(6-(3-aminopyrrolidin-1-yl)pyridin-3-ylamino)-6-(3-chloro-4-hydroxy-5-methoxyphenyl)quinolin-3-yl)(cyclopropyl)methanone], the IC50 at MELK was 0.0027 µM; in the experiment with T47D cells (Homo sapiens, T47D, 72 h) it was 0.057 µM; in the experiment with A549 cells (Homo sapiens, A549, 72 h), 0.082 µM; with HT-1197 cells (Homo sapiens, HT1197, 72 h), 0.62 µM; in the experiment with DU4475 cells (Homo sapiens, DU-4475, 72 h), 0.045 µM.
The corresponding values for `COc1cc(-c2ccc3ncc(C(=O)C4CC4)c(N[C@H]4CC[C@H](CN5CC[C@@H](F)C5)CC4)c3c2)cc(Cl)c1O` [Example 569] are 0.011 µM, 0.62 µM, 0.4 µM, 1.8 µM and 0.41 µM.
The corresponding values for `O=C(c1cnc2ccc(-c3cc(F)c(O)c(Cl)c3)cc2c1N[C@H]1CC[C@H](CN2CC[C@@H](F)C2)CC1)C1CC1` [Example 570, (6-(3-chloro-5-fluoro-4-hydroxyphenyl)-4-((trans-4-(((R)-3-fluoropyrrolidin-1-yl)methyl)cyclohexyl)amino)quinolin-3-yl)(cyclopropyl)methanone] are 0.016 µM, 0.14 µM, 0.13 µM, 0.16 µM and 0.089 µM.
The corresponding values for `O=C(c1cnc2ccc(-c3cc(Cl)c(O)c(Cl)c3)cc2c1N[C@H]1CC[C@H](CN2CC[C@@H](F)C2)CC1)C1CC1` [Example 571, cyclopropyl(6-(3,5-dichloro-4-hydroxyphenyl)-4-((trans-4-(((R)-3-fluoropyrrolidin)methyl)cyclohexyl)amino)quinolin-3-yl)methanon] are 0.0043 µM, 0.18 µM, 0.16 µM, 0.39 µM and 0.08 µM.
With `NC1CCN(c2ncc(Nc3c(C(=O)C4CC4)cnc4ccc(-c5cc(F)c(O)c(Cl)c5)cc34)cn2)C1` (centres unmarked) [Example 572, (4-(2-(3-aminopyrrolidin-1-yl)pyrimidin-5-ylamino)-6-(3-chloro-5-fluoro-4-hydroxyphenyl)quinolin-3-yl)(cyclopropyl)methanone], the concentration for half-maximal inhibition (IC50) at MELK came out at 0.003 µM; in the experiment with T47D cells (Homo sapiens, T47D, 72 h), 0.0076 µM; in the experiment with A549 cells (Homo sapiens, A549, 72 h), 0.03 µM; in the experiment on HT-1197 cells (Homo sapiens, HT1197, 72 h) it was 0.37 µM; in the experiment with DU4475 cells (Homo sapiens, DU-4475, 72 h), 0.011 µM.
As for `NC1CCN(c2ncc(Nc3c(C(=O)C4CC4)cnc4ccc(-c5cc(F)c(O)c(Cl)c5)cc34)cn2)C1` (centres unmarked) [Example 573, (4-(2-(3-aminopyrrolidin-1-yl)pyrimidin-5-ylamino)-6-(3-chloro-5-fluoro-4-hydroxyphenyl)quinolin-3-yl)(cyclopropyl)methanone hydrochloride], the IC50 at MELK (hydrochloride) worked out at 0.004 µM; in the experiment on T47D cells (72 hours, hydrochloride) it was 0.0072 µM; with A549 cells (hydrochloride), 0.032 µM; in the experiment on HT-1197 cells (hydrochloride), 0.57 µM; with DU4475 cells (hydrochloride), 0.013 µM.
As for `NC1CCN(c2ncc(Nc3c(C(=O)C4CC4)cnc4ccc(-c5cc(Cl)c(O)c(Cl)c5)cc34)cn2)C1` (centres unmarked) [Example 574, (4-(2-(3-aminopyrrolidin-1-yl)pyrimidin-5-ylamino)-6-(3,5-dichloro-4-hydroxyphenyl)quinolin-3-yl)(cyclopropyl)methanone], the IC50 on MELK is 0.0018 µM; in the experiment on T47D cells (Homo sapiens, T47D, 72 h), 0.031 µM; in the experiment with A549 cells (Homo sapiens, A549, 72 h) it was 0.087 µM; in the experiment on HT-1197 cells (Homo sapiens, HT1197, 72 h) it was 1.4 µM; with DU4475 cells (Homo sapiens, DU-4475, 72 h), 0.021 µM.
The corresponding values for `NC1CCN(c2ccc(Nc3c(C(=O)C4CC4)cnc4ccc(-c5cc(Cl)c(O)c(Cl)c5)cc34)cn2)C1` (centres unmarked) [Example 575, (4-(6-(3-aminopyrrolidin-1-yl)pyridin-3-ylamino)-6-(3,5-dichloro-4-hydroxyphenyl)quinolin-3-yl)(cyclopropyl)methanone] are 0.0031 µM, 0.028 µM, 0.068 µM, 1.2 µM and 0.029 µM.
The like results for `NC1CCN(c2ccc(Nc3c(C(=O)C4CC4)cnc4ccc(-c5cc(F)c(O)c(Cl)c5)cc34)cn2)C1` (centres unmarked) [Example 576, (4-(6-(3-aminopyrrolidin-1-yl)pyridin-3-ylamino)-6-(3-chloro-5-fluoro-4-hydroxyphenyl)quinolin-3-yl)(cyclopropyl)methanone] were, in that order, 0.0019 µM, 0.0094 µM, 0.026 µM, 0.53 µM and 0.012 µM.
On to `NC1CCN(c2ccc(Nc3c(C(=O)C4CC4)cnc4ccc(-c5cc(F)c(O)c(Cl)c5)cc34)cn2)C1` (centres unmarked) [Example 577, (4-(6-(3-aminopyrrolidin-1-yl)pyridin-3-ylamino)-6-(3-chloro-5-fluoro-4-hydroxyphenyl)quinolin-3-yl)(cyclopropyl)methanone hydrochloride], for which the IC50 on MELK (hydrochloride) is 0.0037 µM; in the experiment with T47D cells (72 hours, hydrochloride), 0.0065 µM; in the experiment on A549 cells (hydrochloride), 0.029 µM; with HT-1197 cells (hydrochloride), 0.52 µM; in the experiment with DU4475 cells (hydrochloride), 0.014 µM.
Regarding `COc1cc(-c2cc3c(Nc4ccc(N5CCNCC5)nc4)c(C(=O)C4CC4)cnc3cc2F)cc(Cl)c1O` [Example 578, (6-(3-chloro-4-hydroxy-5-methoxyphenyl)-7-fluoro-4-(6-(piperazin-1-yl)pyridin-3-ylamino)quinolin-3-yl)(cyclopropyl)methanone], the IC50 on MELK amounted to 0.021 µM; in the experiment on T47D cells (Homo sapiens, T47D, 72 h), 3 µM; in the experiment on A549 cells (Homo sapiens, A549, 72 h), 1.9 µM; in the experiment with HT-1197 cells (Homo sapiens, HT1197, 72 h) it was 8 µM; in the experiment with DU4475 cells (Homo sapiens, DU-4475, 72 h) it was 2.8 µM.
The corresponding values for `COc1cc(-c2ccc3ncc(C(=O)C4CC4)c(NC4C[C@H]5CC[C@@H](C4)N5)c3c2)cc(Cl)c1O` (stereo partly drawn) [Example 579, (4-((1R,3r,5S)-8-azabicyclo[3.2.1]octan-3-ylamino)-6-(3-chloro-4-hydroxy-5-methoxyphenyl)quinolin-3-yl)(cyclopropyl)methanone] are 0.0042 µM, 0.17 µM, 0.27 µM, 7.8 µM and 0.14 µM.
The like results for `O=C(c1cnc2ccc(-c3cc(Cl)c(O)c(Cl)c3)cc2c1N[C@H]1C[C@H]2CC[C@@H](C1)N2)C1CC1` [Example 580, (4-((1R,3r,5S)-8-azabicyclo[3.2.1]octan-3-ylamino)-6-(3,5-dichloro-4-hydroxyphenyl)quinolin-3-yl)(cyclopropyl)methanone] were, in that order, 0.0045 µM, 0.25 µM, 0.69 µM, 4.1 µM and 0.12 µM.
The corresponding values for `COc1cc(-c2ccc3ncc(C(=O)C4CC4)c(Nc4cnc(N5CCC(N)C5)nc4)c3c2)cc(Cl)c1O` (centres unmarked) [Example 582, (4-(2-(3-aminopyrrolidin-1-yl)pyrimidin-5-ylamino)-6-(3-chloro-4-hydroxy-5-methoxyphenyl)quinolin-3-yl)(cyclopropyl)methanone] are 0.0031 µM, 0.052 µM, 0.097 µM, 1.1 µM and 0.064 µM.
In the case of `C=CCN(CC=C)C1(C)CCC(Nc2c(C(=O)C3CC3)cnc3ccc(-c4cc(Cl)c(O)c(Cl)c4)cc23)CC1` (centres unmarked) [Example 583, Cyclopropyl{4-[4-(diallylamino)-4-methylcyclohexylamino]-6-(3,5-dichloro-4-hydroxyphenyl)quinolin-3-yl}methanone], the IC50 at MELK worked out at 0.089 µM; in the experiment with T47D cells (Homo sapiens, T47D, 72 h), 2.6 µM; with A549 cells (Homo sapiens, A549, 72 h) it was 3.1 µM; in the experiment on HT-1197 cells (Homo sapiens, HT1197, 72 h), 10 µM; in the experiment on DU4475 cells (Homo sapiens, DU-4475, 72 h), 2.3 µM.
The like results for `O=C(c1cnc2ccc(-c3cc(Cl)c(O)c(Cl)c3)cc2c1N[C@H]1CC[C@H](CN2CCCC2)CC1)C1CC1` [Example 584, cyclopropyl(6-(3,5-dichloro-4-hydroxyphenyl)-4-((trans-4-(pyrrolidin-1-ylmethyl)cyclohexyl)amino)quinolin-3-yl)methanone] were, in that order, 0.0016 µM, 0.13 µM, 0.071 µM, 0.86 µM and 0.053 µM.
The corresponding values for `COc1cc(-c2ccc3ncc(C(=O)C4CC4)c(N[C@H]4CC[C@H](CN5CCCC5)CC4)c3c2)cc(Cl)c1O` [Example 586] are 0.0028 µM, 0.38 µM, 0.2 µM, 3 µM and 0.19 µM.
The like results for `O=C(c1cnc2ccc(-c3cc(F)c(O)c(Cl)c3)cc2c1N[C@H]1CC[C@H](CN2CCCC2)CC1)C1CC1` [Example 587, (6-(3-chloro-5-fluoro-4-hydroxyphenyl)-4-((trans-4-(pyrrolidin-1-ylmethyl)cyclohexyl)amino)quinolin-3-yl)(cyclopropyl)methanone] were, in that order, 0.0032 µM, 0.11 µM, 0.084 µM, 0.55 µM and 0.065 µM.
